Reference: US20250361230A1, “LATS Inhibitors and Uses Thereof” (The USA, as Represented by the Secretary, Dept. of Heath …, priority 2022, published 2025)
Like-named read-outs stand apart in the source and are kept apart here.

Key:
Assay type in all cases: biochemical
LATS2 = biological target: T1, LATS2 (Homo sapiens, UniProt Q9NRM7); assay: RBC HotSpot kinase assay (33P-ATP, P81 filter-binding), LATS2; settings: read-out: LATS2 IC50
T1 sequence (Q9NRM7 1-1088): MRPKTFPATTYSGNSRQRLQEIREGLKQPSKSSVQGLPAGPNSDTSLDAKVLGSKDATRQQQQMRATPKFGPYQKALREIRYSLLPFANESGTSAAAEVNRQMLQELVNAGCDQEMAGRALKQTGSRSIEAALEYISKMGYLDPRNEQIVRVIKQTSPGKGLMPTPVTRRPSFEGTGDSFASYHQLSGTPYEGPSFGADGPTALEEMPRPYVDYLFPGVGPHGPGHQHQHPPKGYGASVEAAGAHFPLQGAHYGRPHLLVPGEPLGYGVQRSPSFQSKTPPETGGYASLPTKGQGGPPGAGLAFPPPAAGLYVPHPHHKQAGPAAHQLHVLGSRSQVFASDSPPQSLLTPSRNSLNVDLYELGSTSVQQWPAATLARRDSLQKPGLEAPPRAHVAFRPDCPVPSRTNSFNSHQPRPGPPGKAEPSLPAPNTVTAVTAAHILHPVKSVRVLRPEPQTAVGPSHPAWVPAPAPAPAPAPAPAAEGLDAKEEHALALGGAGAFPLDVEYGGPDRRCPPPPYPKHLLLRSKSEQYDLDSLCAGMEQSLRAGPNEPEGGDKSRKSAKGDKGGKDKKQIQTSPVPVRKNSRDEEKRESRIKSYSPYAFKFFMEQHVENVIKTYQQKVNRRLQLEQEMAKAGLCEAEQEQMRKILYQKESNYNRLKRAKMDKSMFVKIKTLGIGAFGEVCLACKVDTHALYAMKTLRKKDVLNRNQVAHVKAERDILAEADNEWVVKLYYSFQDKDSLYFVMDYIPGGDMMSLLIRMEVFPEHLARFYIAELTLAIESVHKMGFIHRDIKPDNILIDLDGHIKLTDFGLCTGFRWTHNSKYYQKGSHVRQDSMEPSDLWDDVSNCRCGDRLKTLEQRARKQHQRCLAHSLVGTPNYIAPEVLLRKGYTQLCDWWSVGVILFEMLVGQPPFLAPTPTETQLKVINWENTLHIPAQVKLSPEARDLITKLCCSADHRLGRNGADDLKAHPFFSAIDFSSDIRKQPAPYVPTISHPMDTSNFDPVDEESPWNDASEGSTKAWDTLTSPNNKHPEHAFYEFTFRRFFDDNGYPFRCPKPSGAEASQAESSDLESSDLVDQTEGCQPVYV
Method in brief: (§1)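 Kinase in Hepes pH 7.5 buffer with Mg2+, EGTA, Brij35, BSA, vanadate, DTT and 1% DMSO, plus required cofactors and substrate, was preincubated 20 min at room temperature with compound. Reaction was started with 33P-ATP and run 2 h, then detected by P81 filter binding. IC50 (nM) came from 10-point singlet curves.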

LATS1 = biological target: T2, LATS1 (Homo sapiens, UniProt O95835); assay: RBC HotSpot kinase assay (33P-ATP, P81 filter-binding), LATS1; settings: read-out: LATS1 IC50
T2 sequence (O95835 1-1130): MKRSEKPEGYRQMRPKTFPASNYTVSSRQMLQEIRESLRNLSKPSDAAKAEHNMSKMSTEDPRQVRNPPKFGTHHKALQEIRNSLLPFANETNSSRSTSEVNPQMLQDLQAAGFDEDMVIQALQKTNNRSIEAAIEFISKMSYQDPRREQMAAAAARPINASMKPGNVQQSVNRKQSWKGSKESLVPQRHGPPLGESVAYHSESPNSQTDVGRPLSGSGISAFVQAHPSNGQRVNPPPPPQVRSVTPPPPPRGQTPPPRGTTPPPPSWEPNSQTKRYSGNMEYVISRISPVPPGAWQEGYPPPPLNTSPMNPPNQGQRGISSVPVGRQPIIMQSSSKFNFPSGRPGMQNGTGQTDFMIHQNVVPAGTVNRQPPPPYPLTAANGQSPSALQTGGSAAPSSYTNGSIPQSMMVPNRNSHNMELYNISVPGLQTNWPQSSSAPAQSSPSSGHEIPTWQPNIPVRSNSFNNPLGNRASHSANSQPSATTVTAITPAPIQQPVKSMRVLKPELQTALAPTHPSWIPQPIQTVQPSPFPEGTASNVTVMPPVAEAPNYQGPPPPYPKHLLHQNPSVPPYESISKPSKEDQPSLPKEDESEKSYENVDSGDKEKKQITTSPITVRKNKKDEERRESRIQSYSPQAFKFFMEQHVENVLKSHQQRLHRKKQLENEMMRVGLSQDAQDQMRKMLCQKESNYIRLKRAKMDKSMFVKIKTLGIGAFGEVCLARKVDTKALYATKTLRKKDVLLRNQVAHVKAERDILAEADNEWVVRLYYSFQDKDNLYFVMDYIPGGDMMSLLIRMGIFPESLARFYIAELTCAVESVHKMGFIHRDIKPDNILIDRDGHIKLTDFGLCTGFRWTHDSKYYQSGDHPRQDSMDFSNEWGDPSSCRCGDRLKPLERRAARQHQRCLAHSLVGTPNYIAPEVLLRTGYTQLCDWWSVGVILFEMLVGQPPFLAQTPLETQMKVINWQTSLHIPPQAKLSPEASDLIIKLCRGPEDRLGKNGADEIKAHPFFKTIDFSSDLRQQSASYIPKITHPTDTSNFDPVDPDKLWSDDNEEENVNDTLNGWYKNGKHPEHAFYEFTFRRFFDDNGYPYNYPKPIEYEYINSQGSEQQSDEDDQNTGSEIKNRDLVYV
Method in brief: as §1

AKT = AKT (Homo sapiens, UniProt P31749); assay: RBC HotSpot kinase assay (33P-ATP, P81 filter-binding), AKT; settings: read-out: AKT IC50
Chain of AKT (P31749 whole entry): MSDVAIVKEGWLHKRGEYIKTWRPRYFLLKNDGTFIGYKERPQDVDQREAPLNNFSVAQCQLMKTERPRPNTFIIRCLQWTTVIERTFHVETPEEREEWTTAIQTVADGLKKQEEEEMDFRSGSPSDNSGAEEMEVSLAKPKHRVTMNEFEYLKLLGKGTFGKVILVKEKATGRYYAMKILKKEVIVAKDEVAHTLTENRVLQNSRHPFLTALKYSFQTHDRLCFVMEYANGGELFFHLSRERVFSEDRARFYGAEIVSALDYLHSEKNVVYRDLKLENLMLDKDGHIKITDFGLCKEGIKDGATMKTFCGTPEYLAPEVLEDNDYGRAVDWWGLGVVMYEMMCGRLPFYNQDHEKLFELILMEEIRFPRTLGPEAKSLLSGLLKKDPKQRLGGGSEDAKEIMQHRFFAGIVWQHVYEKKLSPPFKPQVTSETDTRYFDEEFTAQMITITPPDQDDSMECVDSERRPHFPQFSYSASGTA
Method in brief: as §1

[1] = Table 28, biochemical kinase assay

| IC50 (LATS2; [1]) | IC50 (LATS1; [1]) | IC50 (AKT; [1]) | IC50 (LATS2; biochemical kinase inhibition) | IC50 (LATS1; biochemical kinase inhibition) | IC50 (AKT; biochemical kinase inhibition) | SMILES |
| --- | --- | --- | --- | --- | --- | --- |
| 109 nM | 216 nM | 1650 nM | – | – | – | CC(C)(C)Nc1cc(-c2ccnc3[nH]ccc23)ccc1C1CCNCC1 [Compound 157, N-(tert-butyl)-2-(piperidin-4-yl)-5-(1H-pyrrolo[2,3-b]pyridin-4-yl)aniline] |
| 224 nM | 82 nM | 4870 nM | – | – | – | OC1(c2ccc(-c3ccnc4[nH]cc(F)c34)cc2Cl)C2CNCC1C2 (stereo not drawn) [Compound 102, 6-(2-chloro-4-(3-fluoro-1H-pyrrolo[2,3-b]pyridin-4-yl)phenyl)-3-azabicyclo[3.1.1]heptan-6-ol] |
| 12.2 nM | 35.3 nM | > 10000 nM | – | – | – | C[C@@H]1CN(C(=O)C2CC(C(F)(F)F)C2)C[C@H](C)C1(O)c1c(F)cc(-c2ccnc3[nH]cc(F)c23)cc1F (stereo partly drawn) [Compound 74, ((3S,5R)-4-(2,6-difluoro-4-(3-fluoro-1H-pyrrolo[2,3-b]pyridin-4-yl)phenyl)-4-hydroxy-3,5-dimethylpiperidin-1-yl)(3-(trifluoromethyl)cyclobutyl)methanone] |
| 170 nM | 82.4 nM | 4620 nM | – | – | – | CC(C)(O)C#Cc1cc(-c2ccnc3[nH]ccc23)ccc1CNCc1ccc(F)cc1 [Compound 281, 4-(2-(((4-fluorobenzyl)amino)methyl)-5-(1H-pyrrolo[2,3-b]pyridin-4-yl)phenyl)-2-methylbut-3-yn-2-ol] |
| 4.9 nM | 8.7 nM | 39.5 nM | – | – | – | CCc1cc(-c2ccnc3[nH]cc(F)c23)ccc1[C@@]1(O)[C@H](C)CNC[C@@H]1C [Compound 302, (3S,4s,5R)-4-(2-ethyl-4-(3-fluoro-1H-pyrrolo[2,3-b]pyridin-4-yl)phenyl)-3,5-dimethylpiperidin-4-ol] |
| 8.4 nM | 10 nM | 1090 nM | – | – | – | Cc1cc(-c2ccnc3[nH]ccc23)cc(F)c1[C@@]1(O)[C@H](C)CN(C2CCS(=O)(=O)CC2)C[C@@H]1C [Compound 308, 4-((3S,4s,5R)-4-(2-fluoro-6-methyl-4-(1H-pyrrolo[2,3-b]pyridin-4-yl)phenyl)-4-hydroxy-3,5-dimethylpiperidin-1-yl)tetrahydro-2H-thiopyran 1,1-dioxide] |
| 135 nM | 70.3 nM | 1380 nM | – | – | – | CC(C)(C)Nc1cc(-c2ccnc3[nH]ccc23)ccc1CN [Compound 203, 2-(aminomethyl)-N-(tert-butyl)-5-(1H-pyrrolo[2,3-b]pyridin-4-yl)aniline] |
| 18.9 nM | 29.8 nM | 1720 nM | – | – | – | Cc1nc(-c2ccnc3[nH]cc(F)c23)ccc1C1(O)[C@H](C)CN(C(=O)CN)C[C@@H]1C (stereo partly drawn) [Compound 76, 2-amino-1-((3S,5R)-4-(6-(3-fluoro-1H-pyrrolo[2,3-b]pyridin-4-yl)-2-methylpyridin-3-yl)-4-hydroxy-3,5-dimethylpiperidin-1-yl)ethan-1-one] |
| 120 nM | 56.8 nM | 1580 nM | – | – | – | O=S1(=O)CCC(N2CC3(C2)CC(O)(c2c(F)cc(-c4ccnc5[nH]cc(F)c45)cc2F)C3)CC1 [Compound 140, 4-(6-(2,6-difluoro-4-(3-fluoro-1H-pyrrolo[2,3-b]pyridin-4-yl)phenyl)-6-hydroxy-2-azaspiro[3.3]heptan-2-yl)tetrahydro-2H-thiopyran 1,1-dioxide] |
| 4420 nM | > 10000 nM | > 10000 nM | – | – | – | NCc1ccc(-c2cc(Cl)nc3[nH]ccc23)cc1 [Compound 262, (4-(6-chloro-1H-pyrrolo[2,3-b]pyridin-4-yl)phenyl) methanamine] |
| 371 nM | 412 nM | 788 nM | – | – | – | CCC(CC)Nc1cc(-c2ccnc3[nH]ccc23)ccc1CN [Compound 235, 2-(aminomethyl)-N-(pentan-3-yl)-5-(1H-pyrrolo[2,3-b]pyridin-4-yl)aniline] |
| 14.7 nM | 7.7 nM | 832 nM | – | – | – | COC(=O)c1c[nH]c2nccc(-c3ccc(CN)c(C)c3)c12 [Compound 213, methyl 4-(4-(aminomethyl)-3-methylphenyl)-1H-pyrrolo[2,3-b]pyridine-3-carboxylate] |
| 35 nM | 73 nM | 1150 nM | – | – | – | C=C(C)c1c[nH]c2nccc(-c3ccc(CN)c(-c4ccccc4)c3)c12 [Compound 224, (5-(3-(prop-1-en-2-yl)-1H-pyrrolo[2,3-b]pyridin-4-yl)-[1,1′-biphenyl]-2-yl)methanamine] |
| 18 nM | 9.2 nM | 2330 nM | – | – | – | COC(=O)c1c[nH]c2nccc(-c3ccc(C4(O)CCNCC4)cc3)c12 [Compound 112, methyl 4-(4-(4-hydroxypiperidin-4-yl)phenyl)-1H-pyrrolo[2,3-b]pyridine-3-carboxylate] |
| 31.8 nM | 9.5 nM | 437 nM | – | – | – | CC(C)(N)c1ccc(-c2ccnc3[nH]ccc23)cc1Cl [Compound 205, 2-(2-chloro-4-(1H-pyrrolo[2,3-b]pyridin-4-yl)phenyl)propan-2-amine] |
| 6.5 nM | 20.3 nM | 691 nM | – | – | – | C[C@@H]1CN(C(=O)[C@@H](C)N)C[C@H](C)C1(O)c1c(F)cc(-c2ccnc3[nH]cc(F)c23)cc1F (stereo partly drawn) [Compound 86, (2R)-2-amino-1-((3S,5R)-4-(2,6-difluoro-4-(3-fluoro-1H-pyrrolo[2,3-b]pyridin-4-yl)phenyl)-4-hydroxy-3,5-dimethylpiperidin-1-yl)propan-1-one] |
| > 10000 nM | > 10000 nM | > 10000 nM | – | – | – | CC(C)(C)OC(=O)N1CCC(c2ccc(-c3ccnc4[nH]cc(F)c34)cc2Cl)CC1 [Compound 170, tert-butyl 4-(2-chloro-4-(3-fluoro-1H-pyrrolo[2,3-b]pyridin-4-yl)phenyl)piperidine-1-carboxylate] |
| 14 nM | 34 nM | 1020 nM | – | – | – | NCc1ccc(-c2ccnc3[nH]cc(-c4cccc(Cl)c4)c23)cc1 [Compound 228, (4-(3-(3-chlorophenyl)-1H-pyrrolo[2,3-b]pyridin-4-yl)phenyl) methanamine] |
| – | – | – | 3 nM | 5.3 nM | 251 nM | Cc1cc(-c2ccnc3[nH]cc(C#N)c23)ccc1[C@@]1(O)[C@H](C)CN(C(=O)[C@@H](CO)N(C)C)C[C@@H]1C [Compound 2022, 4-(4-((3S,4S,5R)-1-(dimethyl-D-seryl)-4-hydroxy-3,5-dimethylpiperidin-4-yl)-3-methylphenyl)-1H-pyrrolo[2,3-b]pyridine-3-carbonitrile] |
